How the values were obtained:
Format in all cases: cell-based, human
let-7 = let-7 expression by Q-RT-PCR; conditions: parental or spheroid bladder cancer cells
Experimental: Total RNA from cell lines was isolated using the RNeasy Plus Mini kit (Qiagen, Valencia, USA) according to the manufacturer's protocol. Total RNA extraction from bladder tissue was performed with the QIAzol Lysis Reagent (Qiagen) followed by phenol extraction and ethanol precipitation. Total RNA was eluted in DEPC treated water and stored at -80° C. Total RNA extraction from urine was performed using the […] Isolation Kit (Ambion, Austin, USA). These total RNA were converted to cDNA using the SuperScript III First-Strand Synthesis System (Life technologies, Carlsbad, USA), which was then used as a template for Q-RT-PCR. Q-RT-PCR was performed using the Fast SYBR Green Master Mix (Thermo Fisher Scientific, Waltham, USA) on a 7900HT Fast Real-Time PCR System (Life technologies) in triplicate. Micro RNA (miRNA) extraction was performed using the […] Isolation Kit, and was reverse transcribed using TaqMan reverse transcription kit (Applied Biosystems, Foster City, USA) and miRNA-specific RT primers provided with TaqMan microRNA assays (Applied Biosystems). Q-RT-PCR for miRNAs was performed using the TaqMan Universal PCR Master Mix according to the manufacturer's protocol. SDS software (Applied Biosystems) was used to determine cycle threshold (Ct) values. Expression level was quantified relative to β-actin for mRNA and RNU6B for miRNA using the 2-ΔΔCt method (12).

panel of miRNAs = test: Expression of a panel of miRNAs in BFTC 905 cells
Experimental: Total RNA from cell lines was isolated using the RNeasy Plus Mini kit (Qiagen, Valencia, USA) according to the manufacturer's protocol. Total RNA extraction from bladder tissue was performed with the QIAzol Lysis Reagent (Qiagen) followed by phenol extraction and ethanol precipitation. Total RNA was eluted in DEPC treated water and stored at −80° C. Total RNA extraction from urine was performed using the MirVana miRNA Isolation Kit (Ambion, Austin, USA). These total RNA were converted to cDNA using the SuperScript III First-Strand Synthesis System (Life technologies, Carlsbad, USA), which was then used as a template for Q-RT-PCR. Q-RT-PCR was performed using the Fast SYBR Green Master Mix (Thermo Fisher Scientific, Waltham, USA) on a 7900HT Fast Real-Time PCR System (Life technologies) in triplicate. Micro RNA (miRNA) extraction was performed using the MirVana miRNA Isolation Kit, and was reverse transcribed using TaqMan reverse transcription kit (Applied Biosystems, Foster City, USA) and miRNA-specific RT primers provided with TaqMan microRNA assays (Applied Biosystems). Q-RT-PCR for miRNAs was performed using the TaqMan Universal PCR Master Mix according to the manufacturer's protocol. SDS software (Applied Biosystems) was used to determine cycle threshold (Ct) values. Expression level was quantified relative to β-actin for mRNA and RNU6B for miRNA using the 2-ΔΔCt method (12).

[1] = system: promoters of miR-126, miR-296, and miR-200c; test: Bisulfite sequencing of miRNA promoters; conditions: spheroid cells
Experimental: Cell pellets were digested with 1% sodium dodecyl sulfate and 50 μg/mL proteinase K (Roche, Nutley, USA) at 48° C. overnight. Isolation of genomic DNA from cell lines was performed with the phenol-chloroform extraction protocol followed by ethanol precipitation. Bisulfite treatment was conducted using an EpiTect Bisulfite Kit (QIAGEN, Valencia, USA), and was subsequently amplified via PCR using primers as shown in the following table. PCR products were purified using the QIAquick Gel Extraction kit (Qiagen), and sequenced by Genewiz DNA sequencing service (Genewiz, South Plainfield, USA). The data were analyzed using the Sequence Scanner v1.0 software (Life technologies). A methylation frequency of ≥50% of total CpG sites within the amplified region was considered “methylation-positive”.

Cc1ccc(-c2cc(C(F)(F)F)nn2-c2ccc(S(N)(=O)=O)cc2)cc1 [celecoxib, Celecoxib]
let-7 expression (let-7): restoration
expression of several miRNAs (panel of miRNAs): induced
promoter methylation of miRNAs (miR-126, miR-296, miR-200c) [1]: demethylated

From patent US10888549B2, “Pharmaceutical agents targeting cancer stem cells” (THE JOHNS HOPKINS UNIVERSITY, priority 2016, dated 2021)
